In ChEMBL document CHEMBL1124966, “Cholecystokinin-A receptor ligands based on the kappa-opioid agonist tifluadom” (J Med Chem, 1990):

How the values were obtained:
[1] = target: Opioid receptor (Rattus norvegicus, UniProt P33533+P34975+P33535); assay: Displacement of [3H]dihydromorphine (DHM) from rat brain Opioid receptors
[2] = target: T1, Cholecystokinin receptor type A (Rattus norvegicus, UniProt P30551); assay: Inhibition of binding of [125I]CCK-8 to Cholecystokinin type A receptor in rat pancreas
T1 sequence (P30551 whole entry): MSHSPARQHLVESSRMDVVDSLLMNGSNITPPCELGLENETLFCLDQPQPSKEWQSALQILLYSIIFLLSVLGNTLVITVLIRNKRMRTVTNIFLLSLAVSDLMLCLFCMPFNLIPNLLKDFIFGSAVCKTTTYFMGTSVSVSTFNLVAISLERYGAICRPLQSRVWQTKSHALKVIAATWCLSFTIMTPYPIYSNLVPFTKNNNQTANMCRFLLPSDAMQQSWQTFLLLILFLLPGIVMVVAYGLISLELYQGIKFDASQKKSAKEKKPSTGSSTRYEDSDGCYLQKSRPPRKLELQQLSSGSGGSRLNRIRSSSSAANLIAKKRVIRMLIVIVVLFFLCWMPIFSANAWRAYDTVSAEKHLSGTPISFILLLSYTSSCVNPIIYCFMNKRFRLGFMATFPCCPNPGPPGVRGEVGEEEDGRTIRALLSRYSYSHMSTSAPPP

CN1c2ccccc2C(c2ccccc2F)=NCC1CNC(=O)Cc1c[nH]c2ccccc12 (centres undefined)
IC50 [1]: 0.022 µM

CN1c2ccccc2C(c2ccccc2F)NCC1CNC(=O)c1ccsc1 (centres undefined)
IC50 [1]: 0.03 µM

CCN(CC)CNCC1CN=C(c2ccccc2F)c2ccccc2N1C (centres undefined)
IC50 [2]: > 100 µM

O=C(NCC1CNc2ccccc2C(c2ccccc2F)=N1)C(O)c1ccccc1 (single isomer, unassigned; form 1)
IC50 [2]: 8 µM

NCC1N=C(c2ccccc2F)c2ccccc2NC1=O (centres undefined)
IC50 [2]: > 100 µM

CN1c2ccccc2C(c2ccccc2F)=NCC1CNC(=O)c1cccnc1 (centres undefined)
IC50 [1]: 0.45 µM

O=C(NCC1CNc2ccccc2C(c2ccccc2F)=N1)c1cc2ccccc2[nH]1 (centres undefined)
IC50 [2]: 4 µM

CCN(CC)c1ccc(NCC2CN=C(c3ccccc3F)c3ccccc3N2C)cc1C(F)(F)F (centres undefined)
IC50 [2]: 100 µM

CN1c2ccccc2C(c2ccccc2F)=NCC1CNC(=O)C(N)Cc1c[nH]c2ccccc12 (centres undefined)
IC50 [1]: 0.04 µM

CN1c2ccccc2C(c2ccccc2F)=NCC1CNC(=O)c1ccsc1 (racemic) [TIFLUADOM]
IC50 [2]: 0.047 µM

CN1c2ccccc2C(c2ccccc2F)=NCC1CNC(=O)Cc1cccc2sccc12 (centres undefined)
IC50 [1]: 0.003 µM

O=C(NCC1CNc2ccccc2C(c2ccccc2F)=N1)c1ccsc1 (centres undefined)
IC50 [2]: 10 µM

O=C1Nc2ccccc2C(c2ccccc2F)=NC1CNc1cnc(Cl)cn1 (centres undefined)
IC50 [2]: 15 µM

CN1c2ccccc2C(c2ccccc2F)=NCC1CNC(=O)c1cc2ccccc2[nH]1 (centres undefined)
IC50 [1]: 0.0003 µM

CC(=O)NCSCC(=O)NCC1CN=C(c2ccccc2F)c2ccccc2N1C (centres undefined)
IC50 [1]: 0.12 µM

CN1c2ccccc2C(c2ccccc2F)=NCC1CNC(=O)c1ccc(Cl)cc1 (centres undefined)
IC50 [1]: 0.0005 µM

O=C1Nc2ccccc2C(c2ccccc2F)=NC1CNCC1N=C(c2ccccc2F)c2ccccc2NC1=O (centres undefined)
IC50 [2]: 14 µM

Cc1ccc(C(=O)NC[C@H]2CN=C(c3ccc(F)cc3)c3ccc(C)cc3N2C)cc1
IC50 [2]: 0.26 µM

Cc1ccc(C(=O)NC[C@@H]2CN=C(c3ccc(F)cc3)c3ccc(C)cc3N2C)cc1
IC50 [2]: 0.029 µM

O=C(NCC1CNc2ccccc2C(c2ccccc2F)=N1)C(O)c1ccccc1 (single isomer, unassigned; form 2)
IC50 [2]: > 100 µM

O=C(NCC1N=C(c2ccccc2F)c2ccccc2NC1=O)c1cc2ccccc2[nH]1 (centres undefined)
IC50 [2]: 7 µM

CN1c2ccccc2C(c2ccccc2F)=NCC1CNC(=O)C(O)c1ccccc1 (centres undefined)
IC50 [1]: 0.007 µM
IC50 [2]: 0.6 µM

O=C(NCC1N=C(c2ccccc2F)c2ccccc2NC1=O)c1ccsc1 (centres undefined)
IC50 [2]: 22 µM

O=C(NCC1CNc2ccccc2C(c2ccccc2F)=N1)OCc1ccccc1 (centres undefined)
IC50 [2]: 28 µM

O=C(NCC1N=C(c2ccccc2F)c2ccccc2NC1=O)OCc1ccccc1 (centres undefined)
IC50 [1]: 12 µM
IC50 [2]: 22 µM

COC(=O)CC(NCC1CN=C(c2ccccc2F)c2ccccc2N1C)c1ccccc1 (centres undefined)
IC50 [1]: 0.018 µM
IC50 [2]: 0.018 µM
